Tests used:
HSP90β = HSP90β (Homo sapiens, UniProt P08238); conditions: cited from earlier work
[1] = system: IFN-γ receptor KO and HSF1 knockout MC38 cells; experiment: Flow cytometry of MHC-I on IFN-γ receptor KO and Hsf1 KO MC38 cells; assay type: cell-based, mouse
Procedure: Cell Culture MC38 cells were kindly provided by A. Sharpe from Dana Farber Cancer Institute. Cells were maintained in DMEM supplemented with 10% FBS and penicillin/streptomycin. Cells were confirmed negative for mycoplasma contamination by PCR-based assay. MC38 cells were seeded in 12 well plates at a density of 125,000 cells per well and allowed to attach for 24 hours, and then treated with the indicated concentrations of HSP90i (NVP-HSP990) or IFN-γ. For Ifngra knockout, control or sgRNA targeting Ifngra ([…]) were cloned into pLenti-CRISPRv2 (Addgene #52561). Lentivirus was produced with HEK293T cells and MC38 cells were transduced with standard protocols. Transduced cells were selected with 2 μg/mL puromycin for 72 hours. Selected cells were then treated with DMSO, 60 nM Hsp90i, 10 ng/mL Ifng, or the combination and analyzed by flow cytometry.
For analysis of MHC Class I surface expression, cells were seeded into 12 well plates (125,000/well). 24-hours later, cells were treated with the indicated concentrations of HSP90i (NVP-HSP990) or DMSO vehicle. 72-hours after treatment, cells were dissociated with Accumax (Innovative Cell Technologies) and each treatment condition was distributed into 2 wells of a 96 well plate. […] Cytometric data were plotted and analyzed with FloJo.

MC38 tumors = experiment: Subcutaneous MC38 tumors in syngeneic C57Bl/6 mice, HSP90i in drinking water; assay type: in vivo
Procedure: All experiments involving mice were performed under a protocol approved by the MIT Institutional Animal Care and Use Committee. MC38 cells growing in log phase were harvested by incubation with trypsin, washed 3× in PBS, and implanted (1×10^5 cells/site) into the right inguinal region of 6-8 week old female C57B16 mice (Jackson Labs). Once palpable, tumors were monitored every other day via digital caliper measurements and volume calculated using the following formula: Length (mm)×Width (mm)×Width (mm)×[…]=tumor volume in mm^3. Mice were euthanized by CO2 inhalation, tumors were harvested and cut into thirds with a razor for histology, flow cytometry, and flash freezing in liquid N2 for RNA/protein isolation.
For oral dosing with HSP90i, the average water consumption of the mice was calculated by measuring water bottle weight before and after 72 hours of housing to determine the average consumption per mouse, per day. Across all experiments, C57Cl/6 mice consumed approximately 4 mL every day. Using these water consumption values, and mouse weight, a 4 mg/mL stock solution of NVP-HSP990 (in 100% PEG400) was diluted directly into the drinking water to achieve a target dose of 0.5 mg/kg/day. HSP990 treatment was begun 72 hours prior to implantation of MC38 cells to allow the drug to reach steady state level prior to tumor challenge.
Histology For histological sectioning, tumor tissue was fixed in 10% buffered formalin for 24 hours prior to transfer to 70% EtOH for storage until paraffin-embedding, sectioning and mounting on glass slides. For CD3 and CD8 staining, slides were dewaxed, and antigen retrieval was performed in citrate buffer (10 mM Citric acid, pH=6.0) and pressure-cooked. Slides were then cooled and washed in PBS+0.1% Tween-20 (PBST). Endogenous peroxidase activity was then blocked with Dako Dual Enzyme Block (Agilent Technologies) and endogenous proteins were blocked with 2.5% goat serum in PBST. Slides were then incubated with primary anti-CD8 antibody (1:400) overnight at 4° C. or anti-CD3 antibody (1:500) for 1 hr at 25° C. After incubation with primary antibody, slides were washed 3× with PBST, and then incubated with HRP-conjugated secondary antibody for 30 min at […]. Slides were then washed 3× with PBST prior to development with DAB substrate for 3-5 min until positive staining was observed.
For CD8 and CD3 quantification, slides were scanned with a Leica High Resolution slide scanner and images imported into Aperio eSlide Manager. Two independent sections from each tumor were outlined and CD3/CD8+ cells were identified and quantified using the Nuclear-ID-v1 Algorithm. Individual tumor values are the average of the two tumor sections.
For analysis of MHC Class I on MC38 tumors, mice were sacrificed with by CO2 inhalation, tumor tissue quickly dissected and placed on ice until processing by thorough mincing with a razor and filtration through a 70 μm cell strainer. Cells were then stained with H2-Kb antibody (1:400) or isotype control as described for cultured cells.
For analysis of tissues, samples (2.5-5.0 mm^3) were homogenized in 1 mL of Trizol (Molecular Research Center), phase separated with 200 μL chloroform, and precipitated with 100% isopropanol prior to resuspension in MilliQ H2O and quantification with Nanodrop. RNA was then processed as described above for qRT-PCR.

KPM lung tumors = experiment: Lung tumor burden in hypermutant KPM mouse model of NSCLC; assay type: in vivo; conditions: KPM mice, 0.5 mg/kg/day in drinking water for 4 weeks
Excerpt: A genetically engineered mouse model of non-small cell lung cancer (NSCLC) was used. Mice harboring a Cre-recombinase inducible oncogenic Kras, and a floxed p53 allele (KP) develop tumors following intratracheal administration of Cre recombinase. In addition, a hypermutant mouse model of NSCLC (KPM) was used in which mice have a floxed allele of the MutS homolog 2 (Msh2) gene, a critical component of DNA mismatch repair, in addition to the genetic modifications of the KP mouse model. These models enable the interrogation of Hsp90i strategies in a physiologically relevant NSCLC model with and without hypermutation.
KP and KPM mice were infected intratracheally with Adenovirus expressing Cre recombinase from an SPC promoter at a titer of 2×10^8 plaque forming units per mouse to initiate tumor formation. 8 weeks following tumor initiation, the cohort was randomized and vehicle (control) or Hsp90i (NVP-HSP990) was administered in the drinking water at a dose of 0.5 mg/kg/day for 4 weeks prior to analysis at 12 weeks post tumor induction.
Tumor burden was analyzed histologically on tumor sections stained with hemotoxylin and eosin (H&E) using standard protocols at the Koch Institute Histology Facility. Tumor burden was calculated by dividing the total area of tumor tissue over the total area of normal lung tissue present in each sample.

[2] = 0.5 mg/kg/day in drinking water, 18 days post implantation, C57Bl/6

Sequence of HSP90β (P08238 whole entry): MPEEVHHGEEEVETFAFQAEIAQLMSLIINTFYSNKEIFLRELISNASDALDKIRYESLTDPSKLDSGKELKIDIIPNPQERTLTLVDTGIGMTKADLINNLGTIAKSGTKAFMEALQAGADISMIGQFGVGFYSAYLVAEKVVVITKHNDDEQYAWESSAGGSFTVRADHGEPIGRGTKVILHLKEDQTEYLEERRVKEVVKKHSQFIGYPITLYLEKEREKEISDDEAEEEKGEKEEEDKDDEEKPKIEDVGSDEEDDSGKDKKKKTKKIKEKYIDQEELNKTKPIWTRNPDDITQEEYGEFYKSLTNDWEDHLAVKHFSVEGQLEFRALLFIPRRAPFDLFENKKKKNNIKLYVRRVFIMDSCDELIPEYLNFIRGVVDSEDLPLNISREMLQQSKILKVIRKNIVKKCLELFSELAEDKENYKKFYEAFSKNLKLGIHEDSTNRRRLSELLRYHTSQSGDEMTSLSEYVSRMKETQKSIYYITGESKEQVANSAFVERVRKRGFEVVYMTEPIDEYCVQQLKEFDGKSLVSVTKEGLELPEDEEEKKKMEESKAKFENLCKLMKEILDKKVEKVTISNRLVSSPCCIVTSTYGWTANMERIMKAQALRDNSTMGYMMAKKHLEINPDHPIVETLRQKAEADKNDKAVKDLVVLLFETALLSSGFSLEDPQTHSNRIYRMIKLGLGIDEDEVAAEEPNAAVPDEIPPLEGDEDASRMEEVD

Compound: COc1cccc(-c2cc(F)ccc2[C@H]2Cc3nc(N)nc(C)c3C(=O)N2)n1 [NVP-HSP990]
- IC50 (HSP90β): 0.8 nM
- MHC-I in IFN-γ receptor KO MC38 cells ([1]; 60 nM): induced MHC-I in IFN-γ receptor KO cells
- MHC-I induction in HSF1 knockout MC38 cells ([1]; two knockout cell lines): HSF1 was not required for the induction of MHC-I
- reduction in tumor mass (MC38 tumors; [2]): greater than 50%
- reduction in tumor volume (MC38 tumors; [2]): greater than 50%
- heat-shock response in tumors (qRT-PCR) (MC38 tumors; continuous low-dose administration): does not induce a heat-shock response
- immune gene expression in MC38 tumor tissue (Nanostring) (MC38 tumors; low dose exposure): did not result in broad downregulation in immune gene expression
- total number of CD3+ or CD8+ T-cells in the tumors (MC38 tumors; treated versus control mice): no significant difference
- MHC Class I expression on the surface of dissociated MC38 tumor cells (MC38 tumors; tumors from treated mice versus vehicle): higher levels of MHC Class I expression
- lung tumor burden versus control (KPM lung tumors): significantly reduced the lung tumor burden

Source: patent US20190365719A1, “COMBINATION TREATMENTS OF HSP90 INHIBITORS FOR ENHANCING TUMOR IMMUNOGENICITY AND METHODS OF USE THEREOF” (Massachusetts Institute of Technology, priority 2018, published 2019)
